From US12600710B2, “Beta-catenin and b-cell lymphoma 9 (BCL9) inhibitors” (H. LEE MOFFITT CANCER CENTER AND RESEARCH INSTITUTE, INC., priority 2018, dated 2026)
Where a name gives a salt, the structure may show the parent alone. Read-outs that look alike come from different tables or passages of the source.

Target: T1, β-catenin/BCL9 PPI (Homo sapiens, UniProt P35222)
T1 construct: Wild-type full-length β-catenin were cloned into a pET-28b vector carrying a C-terminal 6×histidine; made in house; host or cells: Escherichia coli BL21 DE3 (β-catenin); BCL9 peptide chemically synthesized
T1 sequence (P35222 1-781): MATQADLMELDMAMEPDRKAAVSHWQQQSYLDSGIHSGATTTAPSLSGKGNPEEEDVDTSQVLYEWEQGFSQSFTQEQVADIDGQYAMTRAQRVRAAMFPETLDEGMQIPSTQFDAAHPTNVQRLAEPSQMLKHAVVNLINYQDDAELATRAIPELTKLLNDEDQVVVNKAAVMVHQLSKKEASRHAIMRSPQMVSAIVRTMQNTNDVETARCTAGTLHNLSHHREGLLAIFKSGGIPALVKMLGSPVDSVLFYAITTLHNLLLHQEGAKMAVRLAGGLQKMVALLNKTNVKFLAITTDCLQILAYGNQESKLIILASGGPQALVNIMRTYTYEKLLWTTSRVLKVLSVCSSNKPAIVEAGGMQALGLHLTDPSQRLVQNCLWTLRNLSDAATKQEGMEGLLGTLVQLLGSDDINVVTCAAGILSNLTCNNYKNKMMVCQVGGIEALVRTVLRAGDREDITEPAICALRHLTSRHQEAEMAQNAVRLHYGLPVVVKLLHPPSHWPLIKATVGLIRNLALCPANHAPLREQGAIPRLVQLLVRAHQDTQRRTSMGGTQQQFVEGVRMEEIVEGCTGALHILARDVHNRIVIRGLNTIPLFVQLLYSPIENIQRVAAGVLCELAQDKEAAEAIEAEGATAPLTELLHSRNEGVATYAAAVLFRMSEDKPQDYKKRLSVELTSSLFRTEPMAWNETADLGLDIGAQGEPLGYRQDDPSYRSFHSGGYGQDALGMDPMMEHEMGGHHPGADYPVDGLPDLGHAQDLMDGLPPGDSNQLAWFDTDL
Assay: AlphaScreen competitive inhibition assay of the β-catenin/BCL9 PPI
Type: binding
Conditions: mean ± SD, triplicate, Ki derived from IC50 (Nikolovska-Coleska method)
Description: AlphaScreen competitive inhibition assays. For the competitive inhibition assays of the β-catenin/BCL9 PPI, the negative control (equivalent to 0% inhibition) refers to 5.0 nM of biotinylated BCL9, 40 nM of His6-tagged β-catenin, and 10 μg/mL of donor and acceptor beads in a final volume of 25 μL assay buffer, but no tested inhibitor present. The positive control (equivalent to 100% inhibition) refers to 5.0 nM of biotinylated BCL9 and 10 μg/mL of donor and acceptor beads in a final volume of 25 μL assay buffer.
For the β-catenin/BCL9 assay, 5 nM of biotinylated BCL9 and 40 nM of His6-tagged β-catenin were incubated in assay buffer at 4° C. for 30 min. Different concentrations of the tested inhibitor were added and incubated in 20 μL assay buffer at 4° C. for another 1 h. All of the above assay plates were covered and gently mixed on an orbital shaker. The donor and acceptor beads were then added to the plates to a final concentration of 10 μg/mL in 25 μL assay buffer. The mixture was incubated for 1 h at 4° C. before detection. The IC50 value was determined by nonlinear least-square analysis of GraphPad Prism 5.0. The Ki values were derived from the IC50 values using a method reported by Nikolovska-Coleska et al (Nikolovska-Coleska, Z.; Wang, R.; Fang, X.; Pan, H.; Tomita, Y.; Li, P.; Roller, P. P.; Krajewski, K.; Saito, N. G.; Stuckey, J. A.; Wang, S. Development and optimization of a binding assay for the XIAP BIR3 domain using fluorescence polarization. Anal. Biochem. 2004, 332, 261-273). The assays were conducted under the conditions required by Nikolovska-Coleska et al.'s equation for determining the Ki values. All of the experiments were performed in triplicate. The results were expressed as mean±standard deviation.

[1] = Example 2 compounds, experiment 1, read-out: Ki (μM ± SD) experiment 1
[2] = Example 2 compounds, experiment 2, read-out: Ki (μM ± SD) experiment 2
[3] = Example 1 compounds, experiment 3, read-out: Ki (μM ± SD) experiment 3
[4] = Example 1 compounds, experiment 4, read-out: Ki (μM ± SD) experiment 4

Structure (SMILES)	Ki [1]	Ki [2]	Ki [3]	Ki [4]
O=C(c1ccc(O[C@H]2CCNC2)c(C2CCCCC2)c1)N1CCC(Oc2cc(F)cc(N3CCNCC3)c2)CC1 [Compound 1, (S)-(3-cyclohexyl-4-(pyrrolidin-3-yloxy)phenyl) (4-(3-fluoro-5-(piperazin-1-yl)phenoxy)piperidin-1-yl) methanone dihydrochloride]	12.3 ± 1.74 µM	25.4 ± 2.43 µM	–	–
NCc1cn(Cc2cc(F)cc(OC3CCN(C(=O)c4ccc(O[C@H]5CCNC5)c(C5CCCCC5)c4)CC3)c2)nn1 [Compound 3, (S)-(4-(3-((4-(aminomethyl)-1H-1,2,3-triazol-1-yl)methyl)-5-fluorophenoxy)piperidin-1-yl) (3-cyclohexyl-4-(pyrrolidin-3-yloxy)phenyl) methanone dihydrochloride]	132 ± 9.82 µM	124 ± 13.4 µM	–	–
CN(C)Cc1cn(Cc2cc(F)cc(OC3CCN(C(=O)c4ccc(O[C@H]5CCNC5)c(C5CCCCC5)c4)CC3)c2)nn1 [Compound 4, (S)-(3-cyclohexyl-4-(pyrrolidin-3-yloxy)phenyl) (4-(3-((4-((dimethylamino)methyl)-1H-1,2,3-triazol-1-yl)methyl)-5-fluorophenoxy)piperidin-1-yl) methanone dihydrochloride]	41.4 ± 4.33 µM	–	–	–
NCCC(=O)Nc1cc(F)cc(OC2CCN(C(=O)c3ccc(OC4CCNC4)c(C4CCCCC4)c3)CC2)c1 (centres unmarked) [Compound 5, 3-amino-N-(3-((1-(3-cyclohexyl-4-(pyrrolidin-3-yloxy)benzoyl)piperidin-4-yl)oxy)-5-fluorophenyl)propanamide dihydrochloride]	24.4 ± 3.18 µM	25.9 ± 2.45 µM	–	–
NCCCC(=O)Nc1cc(F)cc(OC2CCN(C(=O)c3ccc(OC4CCNC4)c(C4CCCCC4)c3)CC2)c1 (centres unmarked) [Compound 6, 4-amino-N-(3-((1-(3-cyclohexyl-4-(pyrrolidin-3-yloxy)benzoyl)piperidin-4-yl)oxy)-5-fluorophenyl)butanamide dihydrochloride]	56.9 ± 8.34 µM	24.2 ± 2.7 µM	–	–
CNC(=O)C1CN(C(=O)c2cc(F)cc(NC(C)=O)c2)CCN1C(=O)c1ccc(O[C@H]2CCNC2)c(C2CCCCC2)c1 (stereo partly drawn) [Compound 17, 4-(3-Acetamido-5-fluorobenzoyl)-1-(3-cyclohexyl-4-(((S)-pyrrolidin-3-yl)oxy)benzoyl)-N-methylpiperazine-2-carboxamide trifluoroacetate]	–	–	200 ± 20 µM	140 ± 17 µM
CC(=O)Nc1cc(F)cc(C(=O)N2CCN(C(=O)c3ccc(O[C@H]4CCNC4)c(C4CCCCC4)c3)C(C(=O)N(C)C)C2)c1 (stereo partly drawn) [Compound 18, 4-(3-Acetamido-5-fluorobenzoyl)-1-(3-cyclohexyl-4-(((S)-pyrrolidin-3-yl)oxy)benzoyl)-N,N-dimethylpiperazine-2-carboxamide trifluoroacetate]	–	–	73 µM	150 ± 17 µM
CC(=O)Nc1cc(F)cc(C(=O)N2CCN(C(=O)c3ccc(O[C@H]4CCNC4)c(C4CCCCC4)c3)C(C(=O)NCC(C)C)C2)c1 (stereo partly drawn) [Compound 23, 4-(3-Acetamido-5-fluorobenzoyl)-1-(3-cyclohexyl-4-(((S)-pyrrolidin-3-yl)oxy)benzoyl)-N-isobutylpiperazine-2-carboxamide trifluoroacetate]	–	–	> 1000 µM	> 1000 µM
CC(=O)Nc1cc(F)cc(C(=O)N2CCN(C(=O)c3ccc(O[C@H]4CCNC4)c(C4CCCCC4)c3)C(C(=O)NC3CCCCC3)C2)c1 (stereo partly drawn) [Compound 25, 4-(3-Acetamido-5-fluorobenzoyl)-N-cyclohexyl-1-(3-cyclohexyl-4-(((S)-pyrrolidin-3-yl)oxy)benzoyl) piperazine-2-carboxamide trifluoroacetate]	–	–	390 ± 78 µM	> 1000 µM
CC(=O)Nc1cc(F)cc(C(=O)N2CCN(C(=O)c3ccc(O[C@H]4CCNC4)c(C4CCCCC4)c3)C(C(=O)NCC3CCCCC3)C2)c1 (stereo partly drawn) [Compound 26, 4-(3-Acetamido-5-fluorobenzoyl)-1-(3-cyclohexyl-4-(((S)-pyrrolidin-3-yl)oxy)benzoyl)-N-(cyclohexylmethyl) piperazine-2-carboxamide trifluoroacetate]	–	–	410 ± 56 µM	770 ± 140 µM

Further lines, results first:

Ki [1]	Ki [2]	Ki [3]	Ki [4]	Structure (SMILES)
496 ± 39.7 µM	> 90 µM	–	–	O=C(c1ccc(O[C@H]2CCNC2)c(C2CCCCC2)c1)N1CCC(Oc2cc(F)cc(N3CCNCC3=O)c2)CC1 [Compound 2, (S)-1-(3-((1-(3-cyclohexyl-4-(pyrrolidin-3-yloxy)benzoyl)piperidin-4-yl)oxy)-5-fluorophenyl) piperazin-2-one dihydrochloride]
84.7 ± 11.8 µM	125 ± 13.2 µM	–	–	NCCC(=O)NCc1cc(F)cc(OC2CCN(C(=O)c3ccc(O[C@H]4CCNC4)c(C4CCCCC4)c3)CC2)c1 [Compound 7, 3-Amino-N-(3-((1-(3-cyclohexyl-4-(pyrrolidin-3-yloxy)benzoyl)piperidin-4-yl)oxy)-5-fluorobenzyl) propanamide dihydrochloride]
162 ± 19.6 µM	162 ± 17.4 µM	–	–	CC(C)(CN)C(=O)NCc1cc(F)cc(OC2CCN(C(=O)c3ccc(O[C@H]4CCNC4)c(C4CCCCC4)c3)CC2)c1 [Compound 8, (S)-3-amino-N-(3-((1-(3-cyclohexyl-4-(pyrrolidin-3-yloxy)benzoyl)piperidin-4-yl)oxy)-5-fluorobenzyl)-2,2-dimethylpropanamide dihydrochloride]
–	–	110 ± 16 µM	240 ± 27 µM	CCNC(=O)C1CN(C(=O)c2cc(F)cc(NC(C)=O)c2)CCN1C(=O)c1ccc(O[C@H]2CCNC2)c(C2CCCCC2)c1 (stereo partly drawn) [Compound 19, 4-(3-Acetamido-5-fluorobenzoyl)-1-(3-cyclohexyl-4-(((S)-pyrrolidin-3-yl)oxy)benzoyl)-N-ethylpiperazine-2-carboxamide trifluoroacetate]
–	–	190 ± 18 µM	170 ± 29 µM	CCN(C)C(=O)C1CN(C(=O)c2cc(F)cc(NC(C)=O)c2)CCN1C(=O)c1ccc(O[C@H]2CCNC2)c(C2CCCCC2)c1 (stereo partly drawn) [Compound 20, 4-(3-Acetamido-5-fluorobenzoyl)-1-(3-cyclohexyl-4-(((S)-pyrrolidin-3-yl)oxy)benzoyl)-N-ethyl-N-methylpiperazine-2-carboxamide trifluoroacetate]
–	–	410 ± 41 µM	700 ± 73 µM	CC(=O)Nc1cc(F)cc(C(=O)N2CCN(C(=O)c3ccc(O[C@H]4CCNC4)c(C4CCCCC4)c3)C(C(=O)NC(C)C)C2)c1 (stereo partly drawn) [Compound 21, 4-(3-Acetamido-5-fluorobenzoyl)-1-(3-cyclohexyl-4-(((S)-pyrrolidin-3-yl)oxy)benzoyl)-N-isopropylpiperazine-2-carboxamide trifluoroacetate]
–	–	> 1000 µM	> 1000 µM	CC(=O)Nc1cc(F)cc(C(=O)N2CCN(C(=O)c3ccc(O[C@H]4CCNC4)c(C4CCCCC4)c3)C(C(=O)N(C)C(C)C)C2)c1 (stereo partly drawn) [Compound 22, 4-(3-Acetamido-5-fluorobenzoyl)-1-(3-cyclohexyl-4-(((S)-pyrrolidin-3-yl)oxy)benzoyl)-N-isopropyl-N-methylpiperazine-2-carboxamide trifluoroacetate]
–	–	700 ± 130 µM	540 ± 71 µM	CC(=O)Nc1cc(F)cc(C(=O)N2CCN(C(=O)c3ccc(O[C@H]4CCNC4)c(C4CCCCC4)c3)C(C(=O)NCCC(C)C)C2)c1 (stereo partly drawn) [Compound 24, 4-(3-Acetamido-5-fluorobenzoyl)-1-(3-cyclohexyl-4-(((S)-pyrrolidin-3-yl)oxy)benzoyl)-N-isopentylpiperazine-2-carboxamide trifluoroacetate]
